This note sets out measurements from publication PMC10224510, “Luteolin and Vernodalol as Bioactive Compounds of Leaf and Root Vernonia amygdalina Extracts: Effects on α-Glucosidase, Glycation, ROS, Cell Viability, and In Silico ADMET Parameters” (Pharmaceutics, 2023).

By IC50 is commonly meant the concentration that inhibits the measured activity by half. A higher IC50 goes with weaker potency in that assay.

The assay concerns the target α-glucosidase (EC 3.2.1.20, Saccharomyces cerevisiae type I). As to the kind of experiment: enzyme inhibition with pNPG substrate, absorbance at […] nm. The format is biochemical.

`O=c1cc(-c2ccc(O)c(O)c2)oc2cc(O)cc(O)c12` [luteolin] showed a 50% inhibitory concentration (IC50) of 16.2 µM.
